This assay concerns the target T1, casein kinase 1ε (Homo sapiens, UniProt P49674).
T1 construct: made in house
Put plainly: Casein Kinase Epsilon 33P-ATP Filter Plate Assay for Screening CK1ε Inhibitors. In kind it is biochemical.

Drawing on US7629376B2, “3-substituted-5- and 6-aminoalkyl indole-2-carboxylic acid amides and related analogs as inhibitors of casein kinase I” (Aventis Pharmaceuticals Inc., priority 2004, dated 2009), this text covers Ki for 40 compounds.

T1 sequence (P49674 whole entry): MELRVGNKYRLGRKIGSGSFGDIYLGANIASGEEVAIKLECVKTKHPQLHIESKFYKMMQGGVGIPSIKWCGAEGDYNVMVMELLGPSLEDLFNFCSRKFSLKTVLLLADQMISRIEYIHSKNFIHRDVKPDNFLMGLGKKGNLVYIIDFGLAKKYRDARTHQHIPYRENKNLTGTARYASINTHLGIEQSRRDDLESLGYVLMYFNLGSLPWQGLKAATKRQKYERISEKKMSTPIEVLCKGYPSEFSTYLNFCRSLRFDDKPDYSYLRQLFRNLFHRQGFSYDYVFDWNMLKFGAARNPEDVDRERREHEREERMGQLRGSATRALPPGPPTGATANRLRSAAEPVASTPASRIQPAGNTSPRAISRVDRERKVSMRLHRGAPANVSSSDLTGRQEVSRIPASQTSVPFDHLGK
Protocol: Casein Kinase Epsilon ^33P-ATP Filter Plate Assay for Screening CK1ε Inhibitors
Purpose: This assay measures the ability of compounds to inhibit the phosphorylation of the substrate casein by the enzyme casein kinase 1ε using an in vitro ^33P-ATP filtration assay.
The above are stored as 100 μL aliquots at minus 80° C. • Compounds: • Supply compounds for testing as frozen 10 mM compound stock dissolved in 100% DMSO. Assay Conditions: • Final total assay volume per well is equal to 50 μL that one prepares as follows: • 5 μL of diluted compound stock (10, 1, 0.1, 0.01 or 0.001 μM), • 5 μL of dephosphorylated casein final concentration 0.2 μg/μL, • 20 μL of CK1ε final concentration 3 ng/μL, and • 20 μL of γ-^33P-ATP final concentration 0.02 μCi/μL mixed with cold ATP (10 μM final). Methodology: • 1. Prepare 500 mL of fresh assay buffer: 50 mM Tris pH 7.5, 10 nm MgCl2, 2 mM DTT and 1 mM EGTA • 2. Obtain compounds to be evaluated as 10 μL of 10 mM stock dissolved in 100% DMSO. Use a Biomek 2000 liquid handling robot, make serial dilutions to yield 10, 1, 0.1, 0.01 and 0.001 μM final compound dilutions added as 5 μL additions to Falcon U bottom plates. […] A routine screening assay will consist of 32 compounds, which equals 4 assay plates. • 3.
• 4. Add 5 μL of compound as indicated, then add 5 μL of dephosphorylated casein (dissolved in distilled H20) (0.2 μg/μL) and 20 μL CK1ε (3 ng/μL) to the appropriate wells. • 5. Finally add 20 μL γ-^33P-ATP (0.02 μCi/μL)/10 μM cold ATP (equals approximately 2×10^6 CPM per well). • 6. Vortes the Falcon U-Bottom assay plate containing the above 50 μL reaction volume and then incubate at room temperature for 2 hours. • 7. At the end of 2 hours, stop the reaction by the addition of 65 μL of ice cold 2 mM cold ATP (made up in assay buffer) to the assay plates using a Beckman Multimek. • 8. At the same time add 25 μL 100% ice cold TCA made up in distilled H20 to a matching number of Millipore MAPH filter plates. • 9. Using a handheld 8-channel pipettor, transfer 100 μL of the reaction mixture from the Falcon U-Bottom Plate to the Millipore MAPH filter plates presoaked with TCA. • 10. Mix the Millipore MAPH filter plates gently and allow to sit at room temperature for at least 30 minutes to precipitate the proteins. • 11. After 30 minutes, place the filter plates on a Millipore vacuum manifold and filter at no more than 8 mm Hg as the MAPH filters tend to “air lock” at higher vacuum settings. • 12. […] Allow the plates to dry overnight at room temperature. The next day add 40 μL Packard Microscint-20 Scintillation Fluid per well using a Titertek Multidrop dispenser; seal the plates and count for 2 minutes/well in a Packard Topcount NXT Scintillation Counter (to provide CPM values/well). Calculation: • 1. Import Counts Per Minute (CPM) data into a proprietary data calculation and archiving database (Activity Base by IDBS version 5.0). • 2. Column 1 for each plate reflects total phosphorylation activity of the enzyme in the absence of any inhibiting compound and thus represents 100%. Column 12 reflects any nonspecific phosphorylation/retained radioactivity activity in the absence of inhibiting compound and enzyme. Typically one observes approximately 1% of Total CPMs that are “nonspecific”. • 3.

For `NCc1ccc2c(Sc3ccccc3)c(C(N)=O)[nH]c2c1` [IIa, 6-Aminomethyl-3-phenylsulfanyl-1H-indole-2-carboxylic acid amide], the Ki – broadly, the dissociation constant of the complex between target and ligand, obtained from inhibition or displacement – amounted to 0.097 µM. In other words, the double-digit nanomolar range.

For the compound `Cc1cccc(CNCc2ccc3c(Sc4ccccc4)c(C(N)=O)[nH]c3c2)c1` [IIaa, 6-[(3-Methylbenzylamino)methyl]-3-phenylsulfanyl-1H-indole-2-carboxylic acid amide], the Ki came to 0.46 µM. Compared with the last compound, the Ki is about 4.7-fold higher.

`NC(=O)c1[nH]c2cc(CNCc3cccc(C(F)(F)F)c3F)ccc2c1Sc1ccccc1` [IIab, 6-[(2-Fluoro-3-trifluoromethylbenzylamino)methyl]-3-phenylsulfanyl-1H-indole-2-carboxylic acid amide] registered a Ki of 4.04 µM.

For `COc1ccccc1CNCc1ccc2c(Sc3ccccc3)c(C(N)=O)[nH]c2c1` [IIac, 6-[(2-Methoxybenzylamino)methyl]-3-phenylsulfanyl-1H-indole-2-carboxylic acid amide], affinity was put at a Ki of 0.24 µM.

Compound `NCCCC[C@H](N)C(=O)NCc1ccc2c(Sc3ccccc3)c(C(N)=O)[nH]c2c1` [IIad, 6-[(2,6-Diaminohexanoylamino)methyl]-3-phenylsulfanyl-1H-indole-2-carboxylic acid amide] gave a Ki of 0.11 µM.

Take `NC(=O)c1[nH]c2cc(CNC(=O)C(N)CC(=O)O)ccc2c1Sc1ccccc1` (stereo not shown) [IIae, 3-Amino-N-(2-carbamoyl-3-phenylsulfanyl-1H-indol-6-ylmethyl)succinamic acid]: the Ki came to 0.78 µM.

`NC(=O)c1[nH]c2cc(CNCc3c4ccccc4c(Cl)c4ccccc34)ccc2c1Sc1ccccc1` [IIaf, 6-{[(10-Chloro-anthracen-9-ylmethyl)amino]methyl}-3-phenylsulfanyl-1H-indole-2-carboxylic acid amide] showed an inhibition constant Ki of 4.83 µM.

Compound `NC(=O)c1[nH]c2cc(CN(C/C=C/c3ccco3)C/C=C/c3ccco3)ccc2c1Sc1ccccc1` [IIag] gave a Ki of 6.92 µM.

With `NC(=O)c1[nH]c2cc(CNCc3cc(Cl)cc(Cl)c3O)ccc2c1Sc1ccccc1` [IIah, 6-[(3,5-Dichloro-2-hydroxybenzylamino)methyl]-3-phenylsulfanyl-1H-indole-2-carboxylic acid amide], the Ki stood at 3.5 µM.

`COc1cc(CNCc2ccc3c(Sc4ccccc4)c(C(N)=O)[nH]c3c2)cc(Br)c1OC` [IIai, 6-[(3-Bromo-4,5-dimethoxybenzylamino)methyl]-3-phenylsulfanyl-1H-indole-2-carboxylic acid amide]: the Ki was 0.6 µM.

Compound `COc1cc(CNCc2ccc3c(Sc4ccccc4)c(C(N)=O)[nH]c3c2)ccc1OCc1ccccc1` [IIaj, 6-[(4-Benzyloxy-3-methoxybenzylamino)methyl]-3-phenylsulfanyl-1H-indole-2-carboxylic acid amide] registered a Ki of 2.1 µM.

Compound `COc1ccc(CNCc2ccc3c(Sc4ccccc4)c(C(N)=O)[nH]c3c2)cc1OCc1ccccc1` [IIak, 6-[(3-Benzyloxy-4-methoxybenzylamino)methyl]-3-phenylsulfanyl-1H-indole-2-carboxylic acid amide] registered a Ki of 0.64 µM.

In the case of `NC(=O)c1[nH]c2cc(CNCc3ccc([N+](=O)[O-])s3)ccc2c1Sc1ccccc1` [IIal, 6-{[(5-Nitrothiophen-2-ylmethyl)amino]methyl}-3-phenylsulfanyl-1H-indole-2-carboxylic acid amide], the Ki came out at 1.21 µM.

In turn, `COC(=O)c1ccc(CNCc2ccc3c(Sc4ccccc4)c(C(N)=O)[nH]c3c2)cc1` [IIam, 4-{[(2-Carbamoyl-3-phenylsulfanyl-1H-indol-6-ylmethyl)amino]methyl}benzoic acid methyl ester] registered a Ki of 2.42 µM. Compared with the last compound, the Ki is about 2-fold higher.

In turn, `NC(=O)c1[nH]c2cc(CNCC=C(c3ccccc3)c3ccccc3)ccc2c1Sc1ccccc1` [IIan] returned a Ki greater than 10 µM.

`NC(=O)c1[nH]c2cc(CNCc3ccc(C=Cc4ccccc4)cc3)ccc2c1Sc1ccccc1` [IIao, 3-Phenylsulfanyl-6-[(4-styrylbenzylamino)methyl]-1H-indole-2-carboxylic acid amide] gave a Ki greater than 10 µM.

Consider `NC(=O)c1[nH]c2cc(CNCc3c(F)cccc3C(F)(F)F)ccc2c1Sc1ccccc1` [IIap, 6-[(2-Fluoro-6-trifluoromethylbenzylamino)methyl]-3-phenylsulfanyl-1H-indole-2-carboxylic acid amide], for which the Ki was greater than 10 µM.

In turn, `NC(=O)c1[nH]c2cc(CNCc3ccc(-c4ccccc4Cl)o3)ccc2c1Sc1ccccc1` [IIar, 6-({[5-(2-Chlorophenyl)-furan-2-ylmethyl]amino}methyl)-3-phenylsulfanyl-1H-indole-2-carboxylic acid amide] returned a Ki of 2.54 µM.

Take `NC(=O)c1[nH]c2cc(CNCc3cccn3S(=O)(=O)c3ccccc3)ccc2c1Sc1ccccc1` [IIas, 6-{[(1-Benzenesulfonyl-1H-pyrrol-2-ylmethyl)amino]methyl}-3-phenylsulfanyl-1H-indole-2-carboxylic acid amide]: the affinity corresponds to a Ki of 6.25 µM.

`NC(=O)c1[nH]c2cc(CN(Cc3ccc([N+](=O)[O-])o3)Cc3ccc([N+](=O)[O-])o3)ccc2c1Sc1ccccc1` [IIat, 6-{[Bis-(5-nitrofuran-2-ylmethyl)amino]methyl}-3-phenylsulfanyl-1H-indole-2-carboxylic acid amide] showed a Ki greater than 10 µM.

In turn, `NC(=O)c1[nH]c2cc(CNCc3ccc([N+](=O)[O-])o3)ccc2c1Sc1ccccc1` [IIau, 6-{[(5-Nitrofuran-2-ylmethyl)amino]methyl}-3-phenylsulfanyl-1H-indole-2-carboxylic acid amide] registered an inhibition constant (Ki) of 0.7 µM. This counts as sub-micromolar.

In turn, `NC(=O)c1[nH]c2cc(CNCc3ccccc3)ccc2c1Sc1ccccc1` [IIc, 6-(Benzylaminonmethyl)-3-phenylsulfanyl-1H-indole-2-carboxylic acid amide] gave a Ki of 0.72 µM. The Ki values of the last two compounds are within 1.5-fold of each other.

`NC(=O)c1[nH]c2cc(CNCc3ccc([N+](=O)[O-])cc3)ccc2c1Sc1ccccc1` [IId, 6-[(4-Nitrobenzylamino)methyl]-3-phenylsulfanyl-1H-indole-2-carboxylic acid amide] returned a Ki of 0.47 µM.

As to `CN(C)c1ccc(CNCc2ccc3c(Sc4ccccc4)c(C(N)=O)[nH]c3c2)cc1` [IIe, 6-[(4-Dimethylaminobenzylamino)methyl]-3-phenylsulfanyl-1H-indole-2-carboxylic acid amide], the affinity, expressed as Ki, was 0.73 µM.

For `Cc1ccc(CNCc2ccc3c(Sc4ccccc4)c(C(N)=O)[nH]c3c2)cc1` [IIf, 6-[(4-Methylbenzylamino)methyl]-3-phenylsulfanyl-1H-indole-2-carboxylic acid amide], the affinity, expressed as Ki, was 0.81 µM.

Compound `COc1ccc(CNCc2ccc3c(Sc4ccccc4)c(C(N)=O)[nH]c3c2)cc1` [IIg, 6-[(4-Methoxybenzylamino)methyl]-3-phenylsulfanyl-1H-indole-2-carboxylic acid amide] came in with an inhibitory constant (Ki) of 0.52 µM.

As for `NC(=O)c1[nH]c2cc(CNCc3ccc(Br)cc3)ccc2c1Sc1ccccc1` [IIh, 6-[(4-Bromobenzylamino)methyl]-3-phenylsulfanyl-1H-indole-2-carboxylic acid amide], the affinity, expressed as Ki, was 0.74 µM. The Ki values of the last two compounds are within 1.5-fold of each other.

Compound `NC(=O)c1[nH]c2cc(CNCc3ccc(Cl)cc3)ccc2c1Sc1ccccc1` [IIi, 6-[(4-Chlorobenzylamino)methyl]-3-phenylsulfanyl-1H-indole-2-carboxylic acid amide] gave a Ki of 0.39 µM.

In the case of `NC(=O)c1[nH]c2cc(CNCc3ccc(-c4ccccc4)cc3)ccc2c1Sc1ccccc1` [IIj, 6-{[(Biphenyl-4-ylmethyl)amino]methyl}-3-phenylsulfanyl-1H-indole-2-carboxylic acid amide], the affinity corresponds to a Ki of 1.39 µM. Against the preceding compound, the Ki is about 3.6-fold higher.

Compound `NC(=O)c1[nH]c2cc(CNCc3cccc([N+](=O)[O-])c3)ccc2c1Sc1ccccc1` [IIk, 6-[(3-Nitrobenzylamino)methyl]-3-phenylsulfanyl-1H-indole-2-carboxylic acid amide] returned a Ki of 1.19 µM.

`NC(=O)c1[nH]c2cc(CNCc3ccccc3[N+](=O)[O-])ccc2c1Sc1ccccc1` [IIl, 6-[(2-Nitrobenzylamino)methyl]-3-phenylsulfanyl-1H-indole-2-carboxylic acid amide]: the affinity, expressed as Ki, was 1.77 µM. The Ki values of the last two compounds are within 1.5-fold of each other.

Consider `NC(=O)c1[nH]c2cc(CNCc3ccc(C(F)(F)F)cc3)ccc2c1Sc1ccccc1` [IIm, 3-Phenalsulfanyl-6-[(4-trifluoromethylbenzylamino)methyl]-1H-indole-2-carboxylic acid amide], for which the affinity corresponds to a Ki of 4.88 µM.

The compound `NC(=O)c1[nH]c2cc(CNCc3cc(F)cc(C(F)(F)F)c3)ccc2c1Sc1ccccc1` [IIn, 6-[(3-Fluoro-5-trifluoromethylbenzylamino)methyl]-3-phenylsulfanyl-1H-indole-2-carboxylic acid amide] showed a Ki of 4.99 µM.

As to `CC(N)C(=O)NCc1ccc2c(Sc3ccccc3)c(C(N)=O)[nH]c2c1` (stereo not shown) [IIo, 6-[(2-Aminopropionylamino)methyl]-3-phenylsulfanyl-1H-indole-2-carboxylic acid amide], the Ki turned out to be 0.17 µM.

In the case of `NCC(=O)NCc1ccc2c(Sc3ccccc3)c(C(N)=O)[nH]c2c1` [IIp, 6-[(2-Aminoacetylamino)methyl]-3-phenylsulfanyl-1H-indole-2-carboxylic acid amide], the affinity corresponds to a Ki of 0.12 µM.

Take `CCC(C)C(N)C(=O)NCc1ccc2c(Sc3ccccc3)c(C(N)=O)[nH]c2c1` (stereo not shown) [IIq, 6-[(2-Amino-3-methylpentanoylamino)methyl]-3-phenylsulfanyl-1H-indole-2-carboxylic acid amide]: the inhibition constant Ki came out at 0.15 µM.

Consider `NC(=O)CC[C@H](N)C(=O)NCc1ccc2c(Sc3ccccc3)c(C(N)=O)[nH]c2c1` [IIr, 2-Aminopentanedioic acid 5-amide 1-[(2-carbamoyl-3-phenylsulfanyl-1H-indol-6-ylmethyl)-amide]], for which the Ki was 0.27 µM. Compared with the last compound, the Ki is about 1.8-fold higher.

Compound `NC(=O)c1[nH]c2cc(CNC(=O)[C@@H](N)Cc3c[nH]c4ccccc34)ccc2c1Sc1ccccc1` [IIs] displayed a Ki of 0.1 µM.

Consider `NC(=O)c1[nH]c2cc(CNC(=O)[C@@H](N)Cc3ccccc3)ccc2c1Sc1ccccc1` [IIt, 6-[(2-Amino-3-phenylpropionylamino)methyl]-3-phenylsulfanyl-1H-indole-2-carboxylic acid amide], for which the Ki amounted to 1.28 µM. Compared with the last compound, the Ki is about 13-fold higher.

`COc1ccc2ccccc2c1CNCc1ccc2c(Sc3ccccc3)c(C(N)=O)[nH]c2c1` [IIv] displayed a Ki of 1.01 µM. This Ki and that of the compound before are within 1.5-fold of each other.
